Reference: PubChem BioAssay (NCI)
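The compound was tested at five concentrations on cells cultured in 96-well plates, with a 48-hour exposure period. GI50: concentration for 50% inhibition of growth. TGI denotes the concentration required for complete inhibition of growth.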 Where a SMILES comes first, the peptide text is derived from it. The star is where a group is joined. Cbz = O=C(OCc1ccccc1)*; CH2Cl = ClC*

How the values were obtained:
Test in all cases: NCI-60 cell line screen, 48 h
SK-OV-3 ovarian = test system: SK-OV-3 ovarian
UACC-62 melanoma = test system: UACC-62 melanoma
CCRF-CEM leukemia = test system: CCRF-CEM leukemia
OVCAR-8 ovarian = test system: OVCAR-8 ovarian
A498 renal = test system: A498 renal
IGROV1 ovarian = test system: IGROV1 ovarian
CAKI-1 renal = test system: CAKI-1 renal
U251 CNS = test system: U251 CNS
HOP-92 NSCLC = test system: HOP-92 NSCLC
KM12 colon = test system: KM12 colon

Row | Structure (SMILES) | GI50 (SK-OV-3 ovarian) | TGI (SK-OV-3 ovarian) | GI50 (UACC-62 melanoma) | TGI (UACC-62 melanoma) | GI50 (CCRF-CEM leukemia) | TGI (CCRF-CEM leukemia) | GI50 (OVCAR-8 ovarian) | TGI (OVCAR-8 ovarian) | GI50 (A498 renal) | TGI (A498 renal) | GI50 (IGROV1 ovarian) | TGI (IGROV1 ovarian) | GI50 (CAKI-1 renal) | TGI (CAKI-1 renal) | GI50 (U251 CNS) | TGI (U251 CNS) | GI50 (HOP-92 NSCLC) | TGI (HOP-92 NSCLC) | GI50 (KM12 colon) | TGI (KM12 colon)
1 | CO/N=C(\COc1ccc2c(c1)oc(=O)c1cc(OC)ccc12)c1ccc(OC)cc1 | > 100 µM | > 100 µM | > 100 µM | > 100 µM | > 100 µM | > 100 µM | > 100 µM | > 100 µM | > 100 µM | > 100 µM | > 100 µM | > 100 µM | > 100 µM | > 100 µM | > 100 µM | > 100 µM | > 100 µM | > 100 µM | > 100 µM | > 100 µM
2 | Clc1ccc2[nH]cc(-c3nnnn3-c3ccccc3)c2c1 | > 44.3 µM | > 75.3 µM | 11.2 µM | > 100 µM | 19.3 µM | > 100 µM | 29.5 µM | > 93.3 µM | 8.39 µM | 36.8 µM | 29.4 µM | > 77 µM |  | 1.16 µM | 14 µM | > 78.9 µM | 27.5 µM | > 100 µM | 2.99 µM | 19 µM
3 | CN(C)CC1CCCC/C1=N/OC(=O)c1ccc(Cl)cc1 (stereo not given) |  | > 100 µM |  | > 100 µM |  | > 100 µM |  | > 100 µM |  | > 100 µM |  | > 100 µM |  | > 100 µM |  | > 100 µM |  | > 100 µM |  | > 100 µM
4 | COc1ccc2[nH]cc(C3(c4c[nH]c5ccc(OC)cc45)C(=O)Nc4ccc(F)cc43)c2c1 | 3.59 µM | 13.5 µM | 1.98 µM | 6.1 µM | 3.04 µM | 22.4 µM | 2.75 µM | 9.67 µM | 2.56 µM | 12 µM | 2.64 µM | 12.6 µM | 2.29 µM | 10.6 µM | 2.58 µM | 8.83 µM | 2.39 µM | 9.24 µM | 2.58 µM | 6.96 µM
5 | CC(=O)OC12C=CC(=O)N1c1ccccc1C(=O)O2 (stereo not given) |  | > 100 µM |  | > 100 µM |  | > 100 µM |  | > 100 µM | > 100 µM | > 100 µM |  | > 100 µM |  | > 100 µM |  | > 100 µM |  | > 100 µM |  | > 100 µM
6 | COc1ccc(/C=C2/N=C(c3ccccc3)N(c3c(C)n(C)n(-c4ccccc4)c3=O)C2=O)cc1OC | > 100 µM | > 100 µM | > 100 µM | > 100 µM | > 100 µM | > 100 µM | > 100 µM | > 100 µM | > 100 µM | > 100 µM | > 100 µM | > 100 µM | 37.1 µM | > 100 µM | > 100 µM | > 100 µM | > 100 µM | > 100 µM | > 100 µM | > 100 µM
7 | CCn1c2ccccc2c2cc(NC(=O)Nc3ccc([N+](=O)[O-])cc3C)ccc21 | 18.1 µM | > 100 µM | 5.76 µM | > 100 µM | 1.62 µM | 4 µM | 4.61 µM | 37.7 µM | 11.5 µM | 64.1 µM | 3.38 µM | 14.1 µM | 4.35 µM | 17.5 µM | 3.85 µM | 21.6 µM | 1.27 µM | 4.64 µM | 2.69 µM | 16.8 µM
8 | COC(=O)C(Cc1nc2ccc(Cl)cc2[nH]c1=O)/C(=N\N)C(=O)Nc1cc(C)c(Cl)cc1S(=O)(=O)O (stereo not given) |  | > 100 µM |  | > 100 µM |  | > 100 µM |  | > 100 µM |  | > 100 µM |  | > 100 µM |  | > 100 µM |  | > 100 µM |  | > 100 µM |  | > 100 µM
9 | O=C(c1ccccc1)c1cc2ccccc2o1 | > 100 µM | > 100 µM | > 100 µM | > 100 µM | > 100 µM | > 100 µM | > 100 µM | > 100 µM | 39.9 µM | > 100 µM | 25.4 µM | > 100 µM | 67 µM | > 100 µM | 54.5 µM | > 100 µM | 26.7 µM | > 100 µM | > 100 µM | > 100 µM
10 | CC(C)CC(NC(=O)OCc1ccccc1)C(=O)NC(Cc1ccccc1)C(=O)CCl (stereo not drawn) (Cbz-Leu-Phe-CH2Cl; configuration not given here) |  | 16.1 µM |  | 7.82 µM |  | 0.776 µM |  | 5.11 µM |  | 71.2 µM |  | 4.11 µM |  | 12.5 µM |  | 22 µM |  | 3.73 µM |  | 35.3 µM
11 | CCOc1ccccc1NC(=O)C(=O)CC(=O)c1sc(Nc2nnc(-c3ccc(Cl)c(Cl)c3)o2)nc1C |  | > 100 µM |  | > 100 µM |  | > 100 µM |  | > 100 µM |  | > 100 µM |  | > 100 µM |  | > 100 µM |  | 41.4 µM |  | > 100 µM |  | > 100 µM
12 | CCOc1ccc(NC(=O)C(=O)CC(=O)c2c(C)n([O-])c3ccccc3[n+]2=O)cc1 |  | > 100 µM |  | > 100 µM |  | > 100 µM |  | > 100 µM |  | > 100 µM |  | > 100 µM |  | > 100 µM |  | > 100 µM |  | > 100 µM |  | > 100 µM
